Tests used:
Assay in all cases: relative viability (nuclei count vs DMSO), 5 days (fraction); higher = more cells survive
NCI-H1437 = system: NCI-H1437
Method in brief: (§1)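 Relative viability is defined as nuclei in treated wells over nuclei in vehicle wells. Duplicate plates were run and medians reported. Lung cancer cell lines in 1536-well plates were dosed by pin tool one day after seeding, with one drug or with a fixed anchor-drug dose plus five library-drug doses (not always all listed) in √10 steps, and nuclei were counted after 5 days.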

CAL-12T = system: CAL-12T
Method in brief: as §1

NCI-H647 = system: NCI-H647
Method in brief: as §1

NCI-H596 = system: NCI-H596
Method in brief: as §1

201T = system: 201T
Method in brief: as §1

HCC-44 = system: HCC-44
Method in brief: as §1

COR-L 105 = system: COR-L 105
Method in brief: as §1

EPLC-272H = system: EPLC-272H
Method in brief: as §1

NCI-H441 = system: NCI-H441
Method in brief: as §1

HCC-827 = system: HCC-827
Method in brief: as §1

NCI-H522 = system: NCI-H522
Method in brief: as §1

PC-3 [JPC-3] = system: PC-3 [JPC-3]
Method in brief: as §1

NCI-H1755 = system: NCI-H1755
Method in brief: as §1

NCI-H520 = system: NCI-H520
Method in brief: as §1

HCC-15 = system: HCC-15
Method in brief: as §1

HOP-62 = system: HOP-62
Method in brief: as §1

NCI-H1793 = system: NCI-H1793
Method in brief: as §1

NCI-H1355 = system: NCI-H1355
Method in brief: as §1

H3255 = system: H3255
Method in brief: as §1

EKVX = system: EKVX
Method in brief: as §1

NCI-H322M = system: NCI-H322M
Method in brief: as §1

LCLC-103H = system: LCLC-103H
Method in brief: as §1

UMC-11 = system: UMC-11
Method in brief: as §1

SK-LU-1 = system: SK-LU-1
Method in brief: as §1

NCI-H2009 = system: NCI-H2009
Method in brief: as §1

Which relative viability (NCI-H1437; first compound 0.253 µM) does the source give for `Nc1cccc2c1CN(C1CCC(=O)NC1=O)C2=O` (stereo not drawn) [Lenalidomide] + O=C(CCCCCCC(=O)Nc1ccccc1)NO [Vorinostat] (partner 1 µM) here?
The relative viability was 0.825.

What about the relative viability (NCI-H1437; first compound 0.8 µM) of the same compound?
Its relative viability is 0.85.

And the relative viability (NCI-H1437; first compound 2.53 µM)?
The relative viability was 0.934.

What about the relative viability (NCI-H1437; first compound 8 µM) of the same compound?
The relative viability was 0.843.

And the relative viability (CAL-12T; first compound 0.253 µM)?
The relative viability was 0.874.

And the relative viability (CAL-12T; first compound 0.8 µM)?
Its relative viability is 0.887.

What about the relative viability (CAL-12T; first compound 2.53 µM) of the same compound?
The relative viability was 0.999.

And the relative viability (CAL-12T; first compound 8 µM)?
Its relative viability is 0.907.

What about the relative viability (NCI-H647; first compound 0.253 µM) of the same compound?
Its relative viability is 0.415.

And the relative viability (NCI-H647; first compound 0.8 µM)?
Its relative viability is 0.68.

And the relative viability (NCI-H647; first compound 2.53 µM)?
Its relative viability is 0.525.

And the relative viability (NCI-H647; first compound 8 µM)?
The relative viability was 0.653.

What about the relative viability (NCI-H596; first compound 0.253 µM) of the same compound?
The relative viability was 0.584.

And the relative viability (NCI-H596; first compound 0.8 µM)?
Its relative viability is 0.464.

And the relative viability (NCI-H596; first compound 2.53 µM)?
Its relative viability is 0.689.

What about the relative viability (NCI-H596; first compound 8 µM) of the same compound?
The relative viability was 0.52.

What about the relative viability (201T; first compound 0.253 µM) of the same compound?
The relative viability was 0.963.

What about the relative viability (201T; first compound 0.8 µM) of the same compound?
The relative viability was 0.791.

And the relative viability (201T; first compound 2.53 µM)?
The relative viability was 0.955.

And the relative viability (201T; first compound 8 µM)?
Its relative viability is 0.859.

What about the relative viability (HCC-44; first compound 0.253 µM) of the same compound?
The relative viability was 1.05.

And the relative viability (HCC-44; first compound 0.8 µM)?
Its relative viability is 0.926.

What about the relative viability (HCC-44; first compound 2.53 µM) of the same compound?
The relative viability was 1.04.

What about the relative viability (HCC-44; first compound 8 µM) of the same compound?
The relative viability was 1.08.

What about the relative viability (COR-L 105; first compound 0.253 µM) of the same compound?
Its relative viability is 0.682.

What about the relative viability (COR-L 105; first compound 0.8 µM) of the same compound?
The relative viability was 0.863.

What about the relative viability (COR-L 105; first compound 2.53 µM) of the same compound?
Its relative viability is 0.983.

And the relative viability (COR-L 105; first compound 8 µM)?
Its relative viability is 0.858.

What about the relative viability (EPLC-272H; first compound 0.253 µM) of the same compound?
The relative viability was 0.481.

And the relative viability (EPLC-272H; first compound 2.53 µM)?
Its relative viability is 0.296.

And the relative viability (EPLC-272H; first compound 8 µM)?
Its relative viability is 0.451.

What about the relative viability (NCI-H441; first compound 0.253 µM) of the same compound?
Its relative viability is 0.77.

What about the relative viability (NCI-H441; first compound 0.8 µM) of the same compound?
The relative viability was 0.757.

What about the relative viability (NCI-H441; first compound 2.53 µM) of the same compound?
Its relative viability is 0.863.

And the relative viability (NCI-H441; first compound 8 µM)?
Its relative viability is 0.944.

What about the relative viability (HCC-827; first compound 0.253 µM) of the same compound?
The relative viability was 1.04.

What about the relative viability (HCC-827; first compound 0.8 µM) of the same compound?
Its relative viability is 0.763.

What about the relative viability (HCC-827; first compound 2.53 µM) of the same compound?
Its relative viability is 0.985.

What about the relative viability (HCC-827; first compound 8 µM) of the same compound?
The relative viability was 1.06.

What about the relative viability (NCI-H522; first compound 0.253 µM) of the same compound?
Its relative viability is 0.767.

What about the relative viability (NCI-H522; first compound 0.8 µM) of the same compound?
The relative viability was 0.86.

And the relative viability (NCI-H522; first compound 2.53 µM)?
The relative viability was 1.09.

And the relative viability (NCI-H522; first compound 8 µM)?
Its relative viability is 0.781.

What about the relative viability (PC-3 [JPC-3]; first compound 0.253 µM) of the same compound?
Its relative viability is 1.02.

What about the relative viability (PC-3 [JPC-3]; first compound 0.8 µM) of the same compound?
The relative viability was 0.721.

What about the relative viability (PC-3 [JPC-3]; first compound 2.53 µM) of the same compound?
Its relative viability is 0.903.

What about the relative viability (PC-3 [JPC-3]; first compound 8 µM) of the same compound?
The relative viability was 0.72.

What about the relative viability (NCI-H1755; first compound 0.253 µM) of the same compound?
The relative viability was 0.78.

What about the relative viability (NCI-H1755; first compound 0.8 µM) of the same compound?
Its relative viability is 0.649.

What about the relative viability (NCI-H1755; first compound 2.53 µM) of the same compound?
The relative viability was 0.728.

And the relative viability (NCI-H1755; first compound 8 µM)?
Its relative viability is 0.593.

What about the relative viability (NCI-H520; first compound 0.253 µM) of the same compound?
The relative viability was 0.738.

What about the relative viability (NCI-H520; first compound 0.8 µM) of the same compound?
The relative viability was 0.74.

And the relative viability (NCI-H520; first compound 2.53 µM)?
Its relative viability is 0.731.

What about the relative viability (NCI-H520; first compound 8 µM) of the same compound?
The relative viability was 0.698.

And the relative viability (HCC-15; first compound 0.253 µM)?
The relative viability was 0.826.

And the relative viability (HCC-15; first compound 0.8 µM)?
The relative viability was 0.855.

What about the relative viability (HCC-15; first compound 2.53 µM) of the same compound?
Its relative viability is 0.917.

And the relative viability (HCC-15; first compound 8 µM)?
The relative viability was 0.795.

And the relative viability (HOP-62; first compound 0.253 µM)?
Its relative viability is 0.56.

What about the relative viability (HOP-62; first compound 0.8 µM) of the same compound?
Its relative viability is 0.565.

And the relative viability (HOP-62; first compound 2.53 µM)?
Its relative viability is 0.662.

What about the relative viability (HOP-62; first compound 8 µM) of the same compound?
The relative viability was 0.519.

What about the relative viability (NCI-H1793; first compound 0.253 µM) of the same compound?
Its relative viability is 0.739.

And the relative viability (NCI-H1793; first compound 2.53 µM)?
The relative viability was 1.02.

And the relative viability (NCI-H1793; first compound 8 µM)?
The relative viability was 0.35.

And the relative viability (NCI-H1355; first compound 0.253 µM)?
Its relative viability is 0.608.

What about the relative viability (NCI-H1355; first compound 0.8 µM) of the same compound?
Its relative viability is 0.455.

What about the relative viability (NCI-H1355; first compound 2.53 µM) of the same compound?
The relative viability was 0.707.

And the relative viability (NCI-H1355; first compound 8 µM)?
The relative viability was 0.495.

What about the relative viability (H3255; first compound 0.253 µM) of the same compound?
Its relative viability is 0.716.

And the relative viability (H3255; first compound 0.8 µM)?
The relative viability was 0.515.

What about the relative viability (H3255; first compound 2.53 µM) of the same compound?
Its relative viability is 0.823.

What about the relative viability (H3255; first compound 8 µM) of the same compound?
The relative viability was 0.862.

What about the relative viability (EKVX; first compound 0.253 µM) of the same compound?
Its relative viability is 0.765.

And the relative viability (EKVX; first compound 0.8 µM)?
Its relative viability is 0.668.

And the relative viability (EKVX; first compound 2.53 µM)?
The relative viability was 0.954.

What about the relative viability (EKVX; first compound 8 µM) of the same compound?
Its relative viability is 0.636.

What about the relative viability (NCI-H322M; first compound 0.253 µM) of the same compound?
Its relative viability is 0.934.

And the relative viability (NCI-H322M; first compound 0.8 µM)?
Its relative viability is 0.907.

What about the relative viability (NCI-H322M; first compound 2.53 µM) of the same compound?
Its relative viability is 0.962.

What about the relative viability (NCI-H322M; first compound 8 µM) of the same compound?
Its relative viability is 0.986.

And the relative viability (LCLC-103H; first compound 0.253 µM)?
The relative viability was 0.761.

And the relative viability (LCLC-103H; first compound 0.8 µM)?
The relative viability was 0.679.

And the relative viability (LCLC-103H; first compound 2.53 µM)?
Its relative viability is 0.818.

And the relative viability (LCLC-103H; first compound 8 µM)?
Its relative viability is 0.616.

And the relative viability (UMC-11; first compound 0.253 µM)?
Its relative viability is 0.441.

And the relative viability (UMC-11; first compound 0.8 µM)?
Its relative viability is 0.378.

And the relative viability (UMC-11; first compound 2.53 µM)?
The relative viability was 0.428.

What about the relative viability (UMC-11; first compound 8 µM) of the same compound?
Its relative viability is 0.381.

What about the relative viability (SK-LU-1; first compound 0.253 µM) of the same compound?
Its relative viability is 0.763.

And the relative viability (SK-LU-1; first compound 0.8 µM)?
The relative viability was 0.877.

And the relative viability (SK-LU-1; first compound 2.53 µM)?
The relative viability was 0.909.

And the relative viability (SK-LU-1; first compound 8 µM)?
Its relative viability is 0.759.

And the relative viability (NCI-H2009; first compound 0.253 µM)?
The relative viability was 0.686.

What about the relative viability (NCI-H2009; first compound 0.8 µM) of the same compound?
The relative viability was 0.72.

And the relative viability (NCI-H2009; first compound 2.53 µM)?
The relative viability was 0.852.

What about the relative viability (NCI-H2009; first compound 8 µM) of the same compound?
The relative viability was 0.769.

Source: the supplement of paper PMC10307832
